Paper PMC7176092, “Development of the first in vivo GPR17 ligand through an iterative drug discovery pipeline: A novel disease-modifying strategy for multiple sclerosis” (PLoS ONE, 2020)
Where two headings read alike, the source gives them in different places.

Legend:
APJ = biological target: T1, APJ (Homo sapiens, UniProt P35414); experiment: Binding assay APJ; conditions: 100 nM
T1 construct: Eurofins Cerep (external service)
T1 sequence (P35414 1-380): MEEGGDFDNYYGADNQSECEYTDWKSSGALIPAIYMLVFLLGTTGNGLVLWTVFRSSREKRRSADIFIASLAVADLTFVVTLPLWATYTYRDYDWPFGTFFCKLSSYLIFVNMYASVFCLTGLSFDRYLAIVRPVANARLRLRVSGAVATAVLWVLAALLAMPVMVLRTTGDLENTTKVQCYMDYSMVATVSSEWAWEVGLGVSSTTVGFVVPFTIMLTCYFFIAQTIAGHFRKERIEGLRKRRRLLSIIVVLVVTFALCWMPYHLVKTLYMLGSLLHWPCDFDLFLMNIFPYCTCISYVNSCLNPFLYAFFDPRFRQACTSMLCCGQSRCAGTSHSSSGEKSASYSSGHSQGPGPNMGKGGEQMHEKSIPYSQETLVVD

M1 = biological target: T2, M1 (Homo sapiens, UniProt P11229); experiment: Binding assay M1; conditions: 100 nM
T2 construct: Eurofins Cerep (external service)
T2 sequence (P11229 1-460): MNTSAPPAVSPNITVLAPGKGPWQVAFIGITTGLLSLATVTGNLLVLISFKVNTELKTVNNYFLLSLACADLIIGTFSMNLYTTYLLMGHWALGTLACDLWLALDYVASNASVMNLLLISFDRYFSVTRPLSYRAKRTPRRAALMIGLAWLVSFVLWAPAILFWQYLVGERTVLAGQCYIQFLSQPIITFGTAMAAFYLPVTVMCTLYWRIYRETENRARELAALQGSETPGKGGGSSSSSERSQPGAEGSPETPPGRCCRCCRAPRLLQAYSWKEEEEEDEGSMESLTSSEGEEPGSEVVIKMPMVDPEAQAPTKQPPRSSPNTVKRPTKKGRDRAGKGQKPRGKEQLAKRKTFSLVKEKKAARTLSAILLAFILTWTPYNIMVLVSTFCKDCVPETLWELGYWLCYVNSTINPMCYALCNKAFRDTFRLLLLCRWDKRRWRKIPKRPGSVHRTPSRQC

ADR3 = biological target: T3, ADR3 (Homo sapiens, UniProt P13945); experiment: Binding assay ADR3 (reference Alprenolol); conditions: 100 nM
T3 construct: Eurofins Cerep (external service)

CCR6 = biological target: T4, CCR6 (Homo sapiens, UniProt P51684); experiment: Cellular functional assay CCR6
T4 sequence (P51684 1-374): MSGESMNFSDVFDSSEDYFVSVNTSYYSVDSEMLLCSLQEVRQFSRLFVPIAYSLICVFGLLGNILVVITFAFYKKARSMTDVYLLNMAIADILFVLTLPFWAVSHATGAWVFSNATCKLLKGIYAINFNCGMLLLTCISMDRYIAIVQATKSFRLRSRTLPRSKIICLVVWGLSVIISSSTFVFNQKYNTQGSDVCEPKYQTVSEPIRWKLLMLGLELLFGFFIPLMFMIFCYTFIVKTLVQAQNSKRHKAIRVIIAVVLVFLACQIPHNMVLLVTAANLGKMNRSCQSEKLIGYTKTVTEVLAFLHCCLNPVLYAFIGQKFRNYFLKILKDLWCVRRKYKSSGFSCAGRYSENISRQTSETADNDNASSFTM

OPC-DRG co-cultures = experiment: In vitro myelination assay; type: cell-based, rat OPCs, mouse DRG; conditions: 10 nM; CTRL 100%; mean ± S.E.M.
Method: OPC-DRG co-cultures were prepared according to a previously described protocol.
DRG explants from E14.5 mice were directly put in culture after being plucked off from embryo spinal cords. Then, they were grown in Neurobasal medium (Life Technologies) in presence of 100 ng/ml nerve growth factor (NGF, Sigma-Aldrich), and in presence of 10 μM fluorodeoxyuridine (FUDR, Sigma-Aldrich) in order to remove all non-neuronal cells.
Purified primary rat OPCs were obtained from mixed glial cultures by orbital shaking for 3 hours. […]
At day 15, OPC/DRG co-cultures treated with either the selected compounds or the vehicle were fixed and treated with rat anti-MBP (Millipore), mouse anti-SMI 31 and mouse anti-SMI 32 (Cell Signaling), followed by the secondary goat anti-rat/-mouse antibody, conjugated to Alexa Fluor 555 or Alexa Fluor 488 (Life Technologies). The quantification of myelin segments was performed following a previously described protocol with ZEISS LSM Image Browser by acquiring 6 random fields of 4–5 coverslips for each experimental condition. […] The amount of myelin per axon (myelination index) was calculated as the ratio between the white pixels area and the green pixels area. […]

[1] = mean of 2, read-out: % Of control specific binding, Mean
[2] = read-out: % Inhibition of control specific binding
[3] = single replicates 1 and 2, 0.1 µM
[4] = single replicates 1 and 2, read-out: % Of control specific binding

T3 sequence (P13945 whole entry): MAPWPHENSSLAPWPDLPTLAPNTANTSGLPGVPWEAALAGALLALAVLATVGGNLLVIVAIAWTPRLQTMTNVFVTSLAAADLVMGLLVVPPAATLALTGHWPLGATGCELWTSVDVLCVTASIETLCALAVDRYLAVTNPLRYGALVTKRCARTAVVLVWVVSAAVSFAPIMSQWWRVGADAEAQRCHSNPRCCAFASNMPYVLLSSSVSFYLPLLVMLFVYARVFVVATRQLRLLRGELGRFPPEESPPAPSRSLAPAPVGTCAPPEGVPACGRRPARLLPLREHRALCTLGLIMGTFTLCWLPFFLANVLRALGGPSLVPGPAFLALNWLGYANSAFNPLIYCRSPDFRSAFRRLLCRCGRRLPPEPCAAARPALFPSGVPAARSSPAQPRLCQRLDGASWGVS

Cc1ccc(-c2nnc(SCC(=O)Nc3nccs3)[nH]2)cc1 [Compound 9]
remaining activity at 0.1 µM (APJ; [1]): 107%
inhibition at 0.1 µM (APJ; [2]): -7%
% Of control specific binding (APJ; [3]): 105.7%
remaining activity at 0.1 µM (APJ; [4]): 108%
remaining activity at 0.1 µM (M1; [1]): 108%
inhibition at 0.1 µM (M1; [2]): -8%
% Of control specific binding (M1; [3]): 110.2%
remaining activity at 0.1 µM (M1; [4]): 105%
remaining activity at 0.1 µM (ADR3; [1]): 99.1%
inhibition at 0.1 µM (ADR3; [2]): 1%
% Of control specific binding (ADR3; [3]): 95.7%
remaining activity at 0.1 µM (ADR3; [4]): 102%
Agonist Response (% of Control) (CCR6; antagonist effect, 100 nM, single replicates 1st and 2nd, 0.1 µM): 105.9%
inhibition at 0.1 µM (CCR6; read-out: % Inhibition of control agonist response): -0.3%
activity at 0.1 µM (CCR6; read-out: Agonist Response (% of Control), Mean, antagonist effect, 100 nM, mean of 2): 106%
activity at 0.1 µM (CCR6; read-out: Agonist Response (% of Control), antagonist effect, 100 nM, single replicates 1st and 2nd): 105%
Myelination Index (OPC-DRG co-cultures): 155.0 ± 12.08%
